Assay results published in ChEMBL document CHEMBL1926560, “Synthesis, biological evaluation and molecular docking studies of resveratrol derivatives possessing curcumin moiety as potent antitubulin agents” (Bioorg Med Chem, 2012).
In brackets after ≈: the same amount, converted by molar mass.

Experiments:
[1] = Inhibition of bovine brain tubulin polymerization after 20 mins by turbidimetry; parameters: species or system Bos taurus
B16-F10 [2] = test: Antiproliferative activity against mouse B16F10 cells after 48 hrs by MTT assay; type: functional, cell-based; details: B16-F10, 48 h
HepG2 = test: Antiproliferative activity against human HepG2 cells after 48 hrs by MTT assay; type: functional, cell-based; details: HepG2, 48 h
A549 = test: Antiproliferative activity against human A549 cells after 48 hrs by MTT assay; type: functional, cell-based; details: A549, 48 h
B16-F10 [3] = test: Cell cycle arrest in mouse B16F10 cells assessed as accumulation at Go/G1 phase at 1 ug/ml after 24 hrs using propidium iodide staining by flow cytometry (reference value: 68 %); type: functional
B16-F10 [4] = test: Cell cycle arrest in mouse B16F10 cells assessed as accumulation at G2/M phase at 1 ug/ml after 24 hrs using propidium iodide staining by flow cytometry (reference value: 18 %); type: functional
B16-F10 [5] = test: Ratio of resveratrol IC50 to compound IC50 for mouse B16F10 cells; type: functional
B16-F10 [6] = test: Cell cycle arrest in mouse B16F10 cells assessed as accumulation at S phase at 1 ug/ml after 24 hrs using propidium iodide staining by flow cytometry (reference value: 12 %); type: functional

Row | Structure (SMILES) | IC50 [1] | IC50 (B16-F10 [2]) | IC50 (HepG2) | IC50 (A549) | Activity (B16-F10 [3]) | Activity (B16-F10 [4]) | Ratio IC50 (B16-F10 [5]) | Activity (B16-F10 [6])
1 | COc1ccc(/C=C/c2cc(OC)cc(OC)c2/C=C/C(=O)/C=C/c2ccccc2)cc1 | 6.28 µg/mL (≈ 14.7 µM) | 2.66 µg/mL (≈ 6.24 µM) | 4.79 µg/mL (≈ 11.2 µM) | 5.25 µg/mL (≈ 12.3 µM) | – | – | – | –
2 | COc1ccc(/C=C/c2cc(OC)cc(OC)c2/C=C/C(=O)/C=C/c2ccccc2OC)cc1 | 5.99 µg/mL (≈ 13.1 µM) | 2.13 µg/mL (≈ 4.67 µM) | 5.82 µg/mL (≈ 12.7 µM) | 6.49 µg/mL (≈ 14.2 µM) | – | – | – | –
3 | COc1ccc(/C=C/c2cc(OC)cc(OC)c2/C=C/C(=O)/C=C/c2cccc(OC)c2)cc1 | 8.05 µg/mL (≈ 17.6 µM) | 2.72 µg/mL (≈ 5.96 µM) | 8.52 µg/mL (≈ 18.7 µM) | 7.66 µg/mL (≈ 16.8 µM) | – | – | – | –
4 | COc1ccc(/C=C/C(=O)/C=C/c2c(/C=C/c3ccc(OC)cc3)cc(OC)cc2OC)cc1 | 2.89 µg/mL (≈ 6.33 µM) | 2.4 µg/mL (≈ 5.26 µM) | 6.99 µg/mL (≈ 15.3 µM) | 7.65 µg/mL (≈ 16.8 µM) | – | – | – | –
5 | COc1ccc(/C=C/c2cc(OC)cc(OC)c2/C=C/C(=O)/C=C/c2cc(OC)cc(OC)c2)cc1 | 1.45 µg/mL (≈ 2.98 µM) | 0.71 µg/mL (≈ 1.46 µM) | 1.6 µg/mL (≈ 3.29 µM) | 2.1 µg/mL (≈ 4.32 µM) | 28% | 52% | 50 | 14%
6 | COc1ccc(/C=C/c2cc(OC)cc(OC)c2/C=C/C(=O)/C=C/c2cc(OC)ccc2OC)cc1 | 2.11 µg/mL (≈ 4.34 µM) | 1.3 µg/mL (≈ 2.67 µM) | 2.78 µg/mL (≈ 5.71 µM) | 4.09 µg/mL (≈ 8.41 µM) | – | – | – | –
7 | COc1ccc(/C=C/c2cc(OC)cc(OC)c2/C=C/C(=O)/C=C/c2cccc(C)c2)cc1 | 3.08 µg/mL (≈ 6.99 µM) | 1.67 µg/mL (≈ 3.79 µM) | 4.58 µg/mL (≈ 10.4 µM) | 4.08 µg/mL (≈ 9.26 µM) | – | – | – | –
8 | COc1ccc(/C=C/c2cc(OC)cc(OC)c2/C=C/C(=O)/C=C/c2ccc(C)cc2)cc1 | 2.68 µg/mL (≈ 6.08 µM) | 1.08 µg/mL (≈ 2.45 µM) | 2.37 µg/mL (≈ 5.38 µM) | 2.69 µg/mL (≈ 6.11 µM) | – | – | – | –
9 | COc1ccc(/C=C/c2cc(OC)cc(OC)c2/C=C/C(=O)/C=C/c2ccc(C)c(C)c2)cc1 | 3.57 µg/mL (≈ 7.85 µM) | 1.57 µg/mL (≈ 3.45 µM) | 4.12 µg/mL (≈ 9.06 µM) | 5.33 µg/mL (≈ 11.7 µM) | – | – | – | –
10 | COc1ccc(/C=C/c2cc(OC)cc(OC)c2/C=C/C(=O)/C=C/c2ccccc2F)cc1 | – | 2.51 µg/mL (≈ 5.65 µM) | 4.85 µg/mL (≈ 10.9 µM) | 8.01 µg/mL (≈ 18 µM) | – | – | – | –
11 | COc1ccc(/C=C/c2cc(OC)cc(OC)c2/C=C/C(=O)/C=C/c2ccccc2Cl)cc1 | – | 5.94 µg/mL (≈ 12.9 µM) | 12.4 µg/mL (≈ 27 µM) | 15.2 µg/mL (≈ 33 µM) | – | – | – | –
12 | COc1ccc(/C=C/c2cc(OC)cc(OC)c2/C=C/C(=O)/C=C/c2ccccc2Br)cc1 | – | 3.09 µg/mL (≈ 6.11 µM) | 10.2 µg/mL (≈ 20.3 µM) | 9.37 µg/mL (≈ 18.5 µM) | – | – | – | –
13 | COc1ccc(/C=C/c2cc(OC)cc(OC)c2/C=C/C(=O)/C=C/c2cccc(F)c2)cc1 | – | 1.67 µg/mL (≈ 3.76 µM) | 2.65 µg/mL (≈ 5.96 µM) | 4.47 µg/mL (≈ 10.1 µM) | – | – | – | –
14 | COc1ccc(/C=C/c2cc(OC)cc(OC)c2/C=C/C(=O)/C=C/c2cccc(Cl)c2)cc1 | – | 2.99 µg/mL (≈ 6.49 µM) | 6.94 µg/mL (≈ 15.1 µM) | 8.23 µg/mL (≈ 17.9 µM) | – | – | – | –
15 | COc1ccc(/C=C/c2cc(OC)cc(OC)c2/C=C/C(=O)/C=C/c2cccc(Br)c2)cc1 | – | 1.97 µg/mL (≈ 3.9 µM) | 5.52 µg/mL (≈ 10.9 µM) | 4.75 µg/mL (≈ 9.4 µM) | – | – | – | –
16 | COc1ccc(/C=C/c2cc(OC)cc(OC)c2/C=C/C(=O)/C=C/c2ccc(F)cc2)cc1 | – | 1.81 µg/mL (≈ 4.07 µM) | 4.35 µg/mL (≈ 9.79 µM) | 5.83 µg/mL (≈ 13.1 µM) | – | – | – | –
17 | COc1ccc(/C=C/c2cc(OC)cc(OC)c2/C=C/C(=O)/C=C/c2ccc(Cl)cc2)cc1 | – | 3.17 µg/mL (≈ 6.88 µM) | 8.29 µg/mL (≈ 18 µM) | 11.2 µg/mL (≈ 24.2 µM) | – | – | – | –
18 | COc1ccc(/C=C/c2cc(OC)cc(OC)c2/C=C/C(=O)/C=C/c2ccc(Br)cc2)cc1 | – | 2.44 µg/mL (≈ 4.83 µM) | 7.75 µg/mL (≈ 15.3 µM) | 7.89 µg/mL (≈ 15.6 µM) | – | – | – | –

Row | Structure (SMILES) | IC50 [1] | IC50 (B16-F10 [2]) | IC50 (HepG2) | IC50 (A549) | Activity (B16-F10 [3]) | Activity (B16-F10 [4]) | Ratio IC50 (B16-F10 [5]) | Activity (B16-F10 [6])
19 | COc1ccc(/C=C/c2cc(OC)cc(OC)c2/C=C/C(=O)/C=C/c2ccc(Cl)cc2Cl)cc1 | – | 2.11 µg/mL (≈ 4.26 µM) | 4.67 µg/mL (≈ 9.43 µM) | 5.05 µg/mL (≈ 10.2 µM) | – | – | – | –
20 | COc1ccc(/C=C/c2cc(OC)cc(OC)c2/C=C/C(=O)/C=C/c2ccc(Cl)c(Cl)c2)cc1 | – | 2.73 µg/mL (≈ 5.51 µM) | 9.49 µg/mL (≈ 19.2 µM) | 6.99 µg/mL (≈ 14.1 µM) | – | – | – | –
21 | COc1ccc(/C=C/c2cc(OC)cc(OC)c2/C=C/C(=O)/C=C/c2cc(Cl)cc(Cl)c2)cc1 | – | 2.08 µg/mL (≈ 4.2 µM) | 3.28 µg/mL (≈ 6.62 µM) | 6.18 µg/mL (≈ 12.5 µM) | – | – | – | –
22 | COc1ccc(/C=C/c2cc(OC)cc(OC)c2/C=C/C(=O)/C=C/c2c(Cl)cccc2Cl)cc1 | – | 3.07 µg/mL (≈ 6.2 µM) | 9.31 µg/mL (≈ 18.8 µM) | 8.93 µg/mL (≈ 18 µM) | – | – | – | –
23 | COc1ccc(/C=C/c2cc(OC)cc(OC)c2/C=C/C(=O)/C=C/c2ccc(F)c(Cl)c2)cc1 | – | 1.79 µg/mL (≈ 3.74 µM) | 9.07 µg/mL (≈ 18.9 µM) | 4.65 µg/mL (≈ 9.71 µM) | – | – | – | –
24 | COc1ccc(/C=C/c2cc(OC)cc(OC)c2/C=C/C(=O)/C=C/c2ccc(F)c(F)c2)cc1 | – | 2.23 µg/mL (≈ 4.82 µM) | 5.97 µg/mL (≈ 12.9 µM) | 6.23 µg/mL (≈ 13.5 µM) | – | – | – | –
25 | COc1ccc(/C=C/c2cc(OC)cc(OC)c2/C=C/C(=O)/C=C/c2cccc(F)c2C)cc1 | – | 1.8 µg/mL (≈ 3.93 µM) | 2.74 µg/mL (≈ 5.98 µM) | 3.98 µg/mL (≈ 8.68 µM) | – | – | – | –
26 | COc1ccc(/C=C/c2cc(OC)cc(OC)c2/C=C/C(=O)/C=C/c2cc(F)ccc2C)cc1 | 1.81 µg/mL (≈ 3.95 µM) | 0.75 µg/mL (≈ 1.64 µM) | 1.96 µg/mL (≈ 4.27 µM) | 2.32 µg/mL (≈ 5.06 µM) | – | – | – | –
27 | COc1ccc(/C=C/c2cc(OC)cc(OC)c2/C=C/C(=O)/C=C/c2cccc(C(F)(F)F)c2)cc1 | – | 3.1 µg/mL (≈ 6.27 µM) | 5.38 µg/mL (≈ 10.9 µM) | 4.97 µg/mL (≈ 10.1 µM) | – | – | – | –
28 | COc1ccc(/C=C/c2cc(OC)cc(OC)c2/C=C/C(=O)/C=C/c2cc(C(F)(F)F)ccc2Cl)cc1 | – | 1.85 µg/mL (≈ 3.5 µM) | 6.79 µg/mL (≈ 12.8 µM) | 5.96 µg/mL (≈ 11.3 µM) | – | – | – | –
29 | COc1ccc(/C=C/c2cc(OC)cc(OC)c2/C=C/C(=O)/C=C/c2ccccc2[N+](=O)[O-])cc1 | – | 3.43 µg/mL (≈ 7.27 µM) | 6.75 µg/mL (≈ 14.3 µM) | 11.7 µg/mL (≈ 24.7 µM) | – | – | – | –
30 | COc1ccc(/C=C/c2cc(OC)cc(OC)c2/C=C/C(=O)/C=C/c2cccc([N+](=O)[O-])c2)cc1 | – | 1.47 µg/mL (≈ 3.12 µM) | 2.44 µg/mL (≈ 5.17 µM) | 3.09 µg/mL (≈ 6.55 µM) | – | – | – | –
31 | COc1ccc(/C=C/c2cc(OC)cc(OC)c2/C=C/C(=O)/C=C/c2ccc([N+](=O)[O-])cc2)cc1 | – | 2.35 µg/mL (≈ 4.98 µM) | 6.95 µg/mL (≈ 14.7 µM) | 6.69 µg/mL (≈ 14.2 µM) | – | – | – | –
32 | COc1ccc(/C=C/c2cc(OC)cc(OC)c2/C=C/C(=O)/C=C/c2ccc(C(C)C)cc2)cc1 | – | 2.24 µg/mL (≈ 4.78 µM) | 4.43 µg/mL (≈ 9.45 µM) | 6.06 µg/mL (≈ 12.9 µM) | – | – | – | –
33 | COc1ccc(/C=C/c2cc(OC)cc(OC)c2/C=C/C(=O)/C=C/c2ccccn2)cc1 | – | 3.12 µg/mL (≈ 7.3 µM) | 9.17 µg/mL (≈ 21.5 µM) | 9.16 µg/mL (≈ 21.4 µM) | – | – | – | –
34 | COc1ccc(/C=C/c2cc(OC)cc(OC)c2/C=C/C(=O)/C=C/c2cccnc2)cc1 | – | 1.48 µg/mL (≈ 3.46 µM) | 3.5 µg/mL (≈ 8.19 µM) | 3.48 µg/mL (≈ 8.14 µM) | – | – | – | –
35 | COc1ccc(/C=C/c2cc(OC)cc(OC)c2/C=C/C(C)=O)cc1 | – | 2.88 µg/mL (≈ 8.51 µM) | 8.41 µg/mL (≈ 24.9 µM) | 6.97 µg/mL (≈ 20.6 µM) | – | – | – | –
36 | COc1cc2c(c(OC)c1OC)-c1ccc(OC)c(=O)cc1[C@@H](NC(C)=O)CC2 [COLCHICINE] | – | – | – | – | 2% | 85% | – | 3%
